Consider 18 molecules from US20250346613A1, “BORIC ACID PROTEASOME INHIBITOR AND USE THEREOF” (ARTIVILA BIOPHARMA, priority 2022, published 2025).

The IC50 is the point on the concentration scale where inhibition reaches its midpoint.

Type in all cases: cell-based
The target in experiment [1] is T1, β5c subunit of the 20S proteasome (Homo sapiens, UniProt P20618+P28074).
T1 construct: The proteasome tested in the present disclosure was derived from Raji cells; endogenous in cells; host or cells: Raji cells
The experiment can be described thus: Proteasome inhibitory activity, β5c subunit (Raji cells treated with compound, lysed, Suc-LLVY-AMC substrate). As to conditions: proteasome from Raji cells incubated with compound 4 h. The source says:
(§1) In the present disclosure, the fluorescent peptide substrate Ac-Ala-Asn-Trp-AMC (abbreviated as Ac-ANW-AMC) and the […] kit containing a fluorescent peptide substrate Suc-Leu-Leu-Val-Tyr-AMC (abbreviated as Suc-LLVY-AMC) (Promega, Item No. G8660) were used to detect the activities of the β5i subunit and β5c subunit of the 20S proteasome, respectively.
(§2) The proteasome tested in the present disclosure was derived from Raji cells, the fluorescent substrate Ac-ANW-AMC was purchased from Roche company, and other reagents were purchased from Sigma company. The experimental system was divided into two parts of cell lysis system and enzyme reaction system. […] The starting concentration of the compound (inhibitor) was 1 μM. It was diluted in a 3-fold serial dilution to a total of 8 concentrations, that is, the administration concentration can be 1 μM, 0.333 μM, 0.111 μM . . . , respectively, and the specific experimental process was described below.
(§3) Raji cells (1×10^6 cells) cryopreserved in liquid nitrogen were thawed rapidly in a water bath at 37° C. The cell pellet was transferred to a 15 mL centrifuge tube, added with 9 mL of fresh medium (Gibco RPMI1640 added with 10% fetal bovine serum and 1% double antibiotics), centrifuged at 120 g for 5 min, inoculated to 25 mL cell culture flasks, and passaged once every 2-3 days.
(§4) The compound was weighed and dissolved in DMSO to a concentration of 10 mM. The compound was then sequentially diluted to concentrations of 200 μM, 66.67 μM, 22.22 μM, 7.41 μM, 2.47 μM, 0.82 μM, 0.27 μM, and 0.091 μM with fresh medium. Raji cells in a good growth status were inoculated into a 48-well cell culture plate at 7×10^5 cells/mL.
(§5) Raji cells in a good growth status were taken and counted. They were then inoculated to a 48-well cell culture plate at 7×10^5 cells/mL. Each 5 μL of the various concentrations of diluted compounds above were taken and added to the culture plate inoculated with cells, and the lowest concentration of compound was 0 μM. The drug bortezomib (Velcade) and ONX-0914 were used as the positive control compounds. All cells were incubated at 37° C. for 4 h.
(§6) The compound-treated cells were sequentially transferred into 1.5 mL centrifuge tubes, centrifuged at 10000 rpm for 2 min, and the supernatants were removed. The cell pellet was resuspended in 1 mL of PBS, centrifuged at 10000 rpm for 2 min, and the supernatant was removed. Cells were resuspended by adding 100 μL of cell lysate (50 mM Tris of pH 7.5, 150 mM NaCl, 5 mM MgCl2, 5 mM ATP, 1 mM DTT, 0.01% NP-40, 1 mM Digitonin, and Cocktail), placed in an ice bath for 30 min, and centrifuged at 13000 rpm for 10 min.
(§7) 2 mg of fluorescent peptide substrate AC-ANW-AMC was dissolved in 424.7 μL of DMSO to obtain an 8 mM stock solution, and stored at −20° C. The stock solution was diluted 100-fold to a final concentration of […] for use in the reaction system. The fluorescent peptide substrate Suc-LLVY-AMC was prepared according to the instructions of the Promega kit.
(§8) Each 20 μL of the prepared proteasome solution above was added to a 96-well white luciferase microplate and added with 25 μL of AC-ANW-AM substrate buffer solution (50 mM Tris of pH 7.5, 150 mM NaCl, 5 mM MgCl2, 5 mM ATP, 80 uM Ac-ANW-AMC and 1 mM DTT) and 25 μL of Suc-LLVY-AMC substrate buffer solution for 10 min of reaction at 37° C. in the dark. Fluorescence values were read at 345 nm/445 nm by using a fluorence microplate reader.
(§9) The data were exported and the inhibition rate in percentage was calculated according to the following formula: Inhibition rate=(maximum signal value-compound signal value)/(maximum signal value−blank signal value)×100%.
(§10) Where the maximum signal was obtained from cell lysates treated with DMSO only, and the blank signal was obtained from wells containing only lysates.

Experiment [2] deals with T2, β5i subunit of the 20S proteasome (Homo sapiens, UniProt P20618+P28062).
T2 construct: The proteasome tested in the present disclosure was derived from Raji cells; endogenous in cells; host or cells: Raji cells
Description: Proteasome inhibitory activity, β5i subunit (Raji cells treated with compound, lysed, Ac-ANW-AMC substrate). As to conditions: proteasome from Raji cells incubated with compound 4 h.
Description: as §1, §2, §3, §4, §5, §6, §7, §8, §9, §10

In another experiment the test system is MM.1S cell strain. Description: Inhibitory activity of cell strain (CellTiter-Glo). As to conditions: Homo sapiens, MM1.S, 72 h incubation. Put shortly:
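Cells seeded at 1×10^5 per well in RPMI1640 complete medium for 24 h, then treated 72 h at 37 °C, 5% CO2 with 3-fold dilutions, final 5×10^−7 M down to 2.29×10^−10 M. CellTiter-Glo luminescence; inhibition calculated against DMSO-only cells and medium-only blanks.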
Background: In ATP-based viability assays light output follows the ATP content of the culture.

For the molecule `Cc1ccc(C[C@H](NC(=O)C(C)C(=O)NC2CCCCC2)B(O)O)cc1` (stereo partly drawn) [Example 42, ((1R)-1-(3-(cyclohexylamino)-2-methyl-3-oxopropionamido)-2-(p-tolyl)ethyl)boric acid], the half-maximal inhibitory concentration (IC50) in experiment [1] was not above 50 nM; in experiment [2], not above 50 nM; with MM.1S cell strain, 50 to 200 nM.
For `Cc1ccc(C[C@H](NC(=O)C(C(=O)NCc2ccc(Cl)cc2Cl)C(C)C)B(O)O)cc1` (stereo partly drawn) [Example 88, ((1R)-1-(2-((2,4-dichlorobenzyl)carbamoyl)-3-methylbutanamido)-2-(p-tolyl)ethyl)boric acid], the results for the half-inhibitory concentration (IC50) (in experiment [1]; in experiment [2]; in the experiment on MM.1S cell strain) were 50 to 200 nM, not above 50 nM and 50 to 200 nM, respectively.
For the molecule `COc1cccc(CNC(=O)C(C)C(=O)N[C@@H](Cc2ccc(C)cc2)B(O)O)c1` (stereo partly drawn) [Example 43, ((1R)-1-(3-((3-methoxybenzyl)amino)-2-methyl-3-oxopropionamido)-2-(p-tolyl)ethyl)boric acid], the IC50 (in experiment [1]; in experiment [2]; in the experiment on MM.1S cell strain) was not above 50 nM each time.
For `COc1cccc(CNC(=O)C(CC2CCCCC2)C(=O)N[C@@H](Cc2coc3ccccc23)B(O)O)c1` (stereo partly drawn) [Example 84, ((1R)-2-(benzofuran-3-yl)-1-(2-(cyclohexylmethyl)-3-((3-methoxybenzyl)amino)-3-oxopropionamido)ethyl)boroic acid], the 50% inhibitory concentration (IC50) (in experiment [1]; in experiment [2]; in the experiment on MM.1S cell strain) was not above 50 nM throughout.
In the case of `COc1cccc(CNC(=O)CC(=O)N[C@@H](CC(C)C)B(O)O)c1` [Example 48, (R)-(1-(3-((3-methoxybenzyl)amino)-3-oxopropionamido)-3-methylbutyl)boric acid], the IC50 (in experiment [1]; in experiment [2]; in the experiment on MM.1S cell strain) was not above 50 nM each time.
As for `COc1cccc(CNC(=O)C(C)C(=O)N[C@@H](Cc2coc3ccccc23)B(O)O)c1` (stereo partly drawn) [Example 9], the IC50 (in experiment [1]; in experiment [2]; in the experiment with MM.1S cell strain) was not above 50 nM in each case.
On to `Cc1ccc(C[C@H](NC(=O)C(C)C(=O)NCc2cccc(C(F)(F)F)c2)B(O)O)cc1` (stereo partly drawn) [Example 92, ((1R)-1-(2-methyl-3-oxo-3-((3-(trifluoromethyl)benzyl)amino)propionamido)-2-(p-tolyl)ethyl)boric acid], for which the concentration for half-maximal inhibition (IC50) (in experiment [1]; in experiment [2]; in the experiment on MM.1S cell strain) was not above 50 nM throughout.
For `COc1cccc(CNC(=O)C(CC2CC2)C(=O)N[C@@H](Cc2coc3ccccc23)B(O)O)c1` (stereo partly drawn) [Example 81, ((1R)-2-(benzofuran-3-yl)-1-(2-(cyclopropylmethyl)-3-((3-methoxybenzyl)amino)-3-oxopropionamido)ethyl)boric acid], the IC50 (in experiment [1]; in experiment [2]; in the experiment on MM.1S cell strain) was not above 50 nM in each case.
Consider `CC(C)C[C@H](NC(=O)/C=C/C(=O)NCc1cccc(-c2ccccc2)n1)B(O)O` [Example 13, (R,E)-(3-methyl-1-(4-oxo-4-(((6-phenylpyridin-2-yl)methyl)amino)but-2-enamido)butyl)boric acid], for which the IC50 (in experiment [1]; in experiment [2]; in the experiment with MM.1S cell strain) was 50 to 200 nM throughout.
Regarding `CC(C(=O)Nc1ccccc1)C(=O)N[C@@H](Cc1ccccc1)B(O)O` (stereo partly drawn) [Example 47, ((1R)-1-(2-methyl-3-oxo-3-(phenylamino)propionylamino)-2-phenylethyl)boronic acid], the half-maximal inhibitory concentration (IC50) in experiment [1] is 50 to 200 nM; in experiment [2] it was not above 50 nM; in the experiment on MM.1S cell strain, 200 to 500 nM.
Consider `Cc1ccc(C[C@H](NC(=O)C(C)(F)C(=O)NCc2cccc(-c3ccccc3)n2)B(O)O)cc1` (stereo partly drawn) [Example 56, ((1R)-1-(2-fluoro-2-methyl-3-oxo-3-(((6-phenylpyridin-2-yl)methyl)amino)propionylamino)-2-(p-tolyl)ethyl)boric acid], for which the IC50 in experiment [1] was not above 50 nM; in experiment [2] it was not above 50 nM; in the experiment on MM.1S cell strain it was 50 to 200 nM.
For `O=C(CCC(=O)N[C@@H](Cc1ccccc1)B(O)O)NCc1ccccc1` [Example 16, (R)-(1-(4-(benzylamino)-4-oxobutanoylamino)-2-phenylethyl)boric acid], the 50% inhibitory concentration (IC50) is 50 to 200 nM in experiment [1], not above 50 nM in experiment [2] and 200 to 500 nM with MM.1S cell strain.
As for `COc1cccc(CNC(=O)C(C(=O)N[C@@H](Cc2coc3ccccc23)B(O)O)C(C)C)c1` (stereo partly drawn) [Example 75, ((1R)-2-(benzofuran-3-yl)-1-(2-((3-methoxybenzyl)carbamoyl)-3-methylbutanamido)ethyl)boric acid], the IC50 (in experiment [1]; in experiment [2]; in the experiment with MM.1S cell strain) was not above 50 nM each time.
`COc1cccc(CCNC(=O)C(C)C(=O)N[C@@H](Cc2ccc(-c3ccccc3)cc2)B(O)O)c1` (stereo partly drawn) [Example 64, ((1R)-2-([1,1′-biphenyl]-4-yl)-1-(3-((3-methoxyphenylethyl)amino)-2-methyl-3-oxopropionamido)ethyl)boric acid]: the IC50 (in experiment [1]; in experiment [2]; with MM.1S cell strain) was not above 50 nM in each case.
Turning to `Cc1ccc(CNC(=O)/C=C/C(=O)N[C@@H](Cc2ccc(C)cc2)B(O)O)cc1` [Example 10], the half-maximal inhibitory concentration (IC50) lay in the range of 50 to 200 nM in experiment [1], 50 to 200 nM in experiment [2] and 200 to 500 nM in the experiment with MM.1S cell strain.
`Cc1ccc(C[C@H](NC(=O)CC(=O)NCc2cccc(-c3ccccc3)c2)B(O)O)cc1` [Example 27, (R)-(1-(3-(([1,1′-biphenyl]-3-ylmethyl)amino)-3-oxopropionamido)-2-(p-tolyl)ethyl)boric acid]: the half-inhibitory concentration (IC50) (in experiment [1]; in experiment [2]; with MM.1S cell strain) was not above 50 nM in each case.
In the case of `CC(C(=O)NCc1cccc(C(F)(F)F)c1)C(=O)N[C@@H](Cc1coc2ccccc12)B(O)O` (stereo partly drawn) [Example 77, ((1R)-2-(benzofuran-3-yl)-1-(2-methyl-3-oxo-3-((3-(trifluoromethyl)benzyl)amino)propionamido)ethyl)boric acid], the IC50 (in experiment [1]; in experiment [2]; with MM.1S cell strain) was not above 50 nM throughout.
On to `CC(C(=O)NCc1cccc(-c2ccccc2)n1)C(=O)N[C@@H](Cc1ccccc1)B(O)O` (stereo partly drawn) [Example 1, ((1R)-1-(2-methyl-3-oxo-3-(((6-phenylpyridin-2-yl)methyl)amino)propionylamino)-2-phenylethyl)boric acid], for which the IC50 (in experiment [1]; in experiment [2]; in the experiment on MM.1S cell strain) was 50 to 200 nM throughout.
